Source: ChEMBL document CHEMBL5543089, “Discovery of a novel, highly potent EZH2 PROTAC degrader for targeting non-canonical oncogenic functions of EZH2” (Eur J Med Chem, 2024)

Assay: Cmax in mouse at 50 mg/kg, ip measured after 4 hrs
Type: ADME, organism-based
Conditions: in vivo

Which Cmax does the source give for `CCN(c1cc(-c2ccc(CN3CCN(CCC(=O)NCCCCCCCCCCC(=O)N[C@H](C(=O)N4C[C@H](O)C[C@H]4C(=O)NCc4ccc(-c5scnc5C)cc4)C(C)(C)C)CC3)cc2)cc(C(=O)NCc2c(C)cc(C)[nH]c2=O)c1C)C1CCOCC1` here?
The Cmax was 3.9 µM.
